Patent US8481540B2, “Inhibitors of bruton's tyrosine kinase” (Hoffmann-La Roche Inc., priority 2010, dated 2013)
Counter-ions that a name gives are not always drawn.

test system: B cells in human blood; test: Inhibition of B cell activation in whole blood measured by CD69 expression; format: cell-based; settings: CD69-positive, CD20-positive cells after anti-IgM stimulation, human whole blood, 20 hours, read-out: Human Whole Blood
Procedure: Inhibition of B Cell Activation in Whole Blood Measured by CD69 Expression
A procedure to test the ability of Btk inhibitors to suppress B cell receptor-mediated activation of B cells in human blood is as follows:
Human whole blood (HWB) is obtained from healthy volunteers, with the following restrictions: 24 hr drug-free, non-smokers. Blood is collected by venipuncture into Vacutainer tubes anticoagulated with sodium heparin. Test compounds are diluted to […] the desired starting drug concentration in PBS (20×), followed by three-fold serial dilutions in 10% DMSO in PBS to produce a nine point dose-response curve. 5.5 μl of each compound dilution is added in duplicate to a 2 ml96-well V bottom plate (Analytical Sales and Services, #59623-23); 5.5 μl of 10% DMSO in PBS is added to control and no-stimulus wells. HWB (100 μl) is added to each well, and after mixing the plates are incubated at 37 C, 5% CO2, 100% humidity for 30 minutes. Goat F(ab′)2 anti-human IgM (Southern Biotech, #2022-14) (10 μl of a […] solution, 50 μg/ml final concentration) is added to each well (except the no-stimulus wells) with mixing and the plates are incubated for an additional 20 hours.
At the end of the 20 hour incubation, samples are incubated with florescent-probe-labeled anti-bodies (15 μl PE Mouse anti-Human CD20, BD Pharmingen, #555623, and/or 20 ul APC Mouse anti-Human CD69, BD Pharmingen #555533) for 30 minutes, at 37 C, 5% CO2, 100% humidity. Included are induced control, unstained and single stains for compensation adjustments and initial voltage settings. Samples are then lysed with 1 ml of 1× Pharmingen Lyse Buffer (BD Pharmingen #555899), and plates are centrifuged at 1800 rpm for 5 minutes. Supernatants are removed via suction and the remaining pellets are lysed again with another 1 ml of 1× Pharmingen Lyse Buffer, and plates are spun down as before. Supernatants are aspirated and remaining pellets are washed in FACs buffer (PBS+1% FBS). After a final spin, the supernantants are removed and pellets are resuspended in 180 μl of FACs buffer. Samples are transferred to a 96 well plate suitable to be run on the HTS 96 well system on the BD LSR II flow cytometer.
Using appropriate excitation and emission wavelengths for the fluorophores used, data are acquired and percent positive cell values are obtained using Cell Quest Software. Results are initially analyzed by FACS analysis software (Flow Jo). […] The IC50 values are calculated using XLfit software version 3, equation 201.
Representative compound data for this assay are listed below in Table II.

SMILES | IC50 [nM]
CN1CCC(c2ccc(Nc3cc(-c4cccc(-n5ccc6cc(C(C)(C)C#N)cc(F)c6c5=O)c4CO)nn(C)c3=O)nc2)C1 (stereo in doubt) [I-89, 2-[8-Fluoro-2-(2-hydroxymethyl-3-{1-methyl-5-[5-((S)-1-methyl-pyrrolidin-3-yl)-pyridin-2-ylamino]-6-oxo-1,6-dihydro-pyridazin-3-yl}-phenyl)-1-oxo-1,2-dihydro-isoquinolin-6-yl]-2-methyl-propionitrile] | 485
Cn1nc(-c2cccc(-n3ccc4cc(C(C)(C)C#N)cc(F)c4c3=O)c2CO)cc(Nc2ccc(C(=O)N3CCOCC3)cn2)c1=O [I-15, 2-[8-fluoro-2-(2-hydroxymethyl-3-{1-methyl-5-[5-(morpholine-4-carbonyl)-pyridin-2-ylamino]-6-oxo-1,6-dihydro-pyridazin-3-yl}-phenyl)-1-oxo-1,2-dihydro-isoquinolin-6-yl]-2-methyl-propionitrile] | 163
COC[C@H](O)COc1ccc(Nc2cc(-c3cccc(-n4ncc5cc(C(C)(C)C)cc(F)c5c4=O)c3CO)nn(C)c2=O)nc1 [I-16, 6-tert-Butyl-8-fluoro-2-(3-{5-[5-((S)-2-hydroxy-3-methoxy-propoxy)-pyridin-2-ylamino]-1-methyl-6-oxo-1,6-dihydro-pyridazin-3-yl}-2-hydroxymethyl-phenyl)-2H-phthalazin-1-one] | 26
CN(C)C(=O)c1ccc(Nc2cc(-c3cccc(-n4ncc5cc(C(C)(C)C)cc(F)c5c4=O)c3CO)nn(C)c2=O)nc1 [I-20] | 15
CN1CC2(C1)CN(c1ccc(Nc3cc(-c4cccc(-n5ncc6cc(C(C)(C)C)cc(F)c6c5=O)c4CO)nn(C)c3=O)nc1)C2 [I-22, 6-tert-butyl-8-fluoro-2-(2-hydroxymethyl-3-{1-methyl-5-[5-(6-methyl-2,6-diaza-spiro[3.3]hept-2-yl)-pyridin-2-ylamino]-6-oxo-1,6-dihydro-pyridazin-3-yl}-phenyl)-2H-phthalazin-1-one] | 33
CCS(=O)(=O)c1ccc(Nc2cc(-c3cccc(-n4ncc5cc(C(C)(C)C)cc(F)c5c4=O)c3CO)nn(C)c2=O)nc1 [I-23, 6-tert-Butyl-2-{3-[5-(5-ethanesulfonyl-pyridin-2-ylamino)-1-methyl-6-oxo-1,6-dihydro-pyridazin-3-yl]-2-hydroxymethyl-phenyl}-8-fluoro-2H-phthalazin-1-one] | 60
Cn1nc(-c2cccc(-n3ncc4cc(C(C)(C)C)cc(F)c4c3=O)c2CO)cc(Nc2ccc(S(=O)(=O)CCO)cn2)c1=O [I-26, 6-tert-Butyl-8-fluoro-2-(3-{5-[5-(2-hydroxyethanesulfonyl)-pyridin-2-ylamino]-1-methyl-6-oxo-1,6-dihydro-pyridazin-3-yl}-2-hydroxymethyl-phenyl)-2H-phthalazin-1-one] | 152

Now from value to compound:

IC50 [nM] | SMILES
116 | CC(C)S(=O)(=O)c1ccc(Nc2cc(-c3cccc(-n4ncc5cc(C(C)(C)C)cc(F)c5c4=O)c3CO)nn(C)c2=O)nc1 [I-24, 6-tert-Butyl-8-fluoro-2-(2-hydroxymethyl-3-{1-methyl-6-oxo-5-[5-(propane-2-sulfonyl)-pyridin-2-ylamino]-1,6-dihydro-pyridazin-3-yl}-phenyl)-2H-phthalazin-1-one]
109 | Cn1nc(-c2cccc(-n3ncc4cc(C(C)(C)C)cc(F)c4c3=O)c2CO)cc(Nc2ccc(C(=O)N3CCC(C)(O)CC3)cn2)c1=O [I-21, 6-tert-butyl-8-fluoro-2-(2-hydroxymethyl-3-{5-[5-(4-hydroxy-4-methyl-piperidine-1-carbonyl)-pyridin-2-ylamino]-1-methyl-6-oxo-1,6-dihydro-pyridazin-3-yl}-phenyl)-2H-phthalazin-1-one]
89 | CC(C)N1CCN(c2ccc(Nc3cc(-c4cccc(-n5ncc6cc(C(C)(C)C)cc(F)c6c5=O)c4CO)nn(C)c3=O)nc2)CC1 [I-27, 6-tert-Butyl-8-fluoro-2-(2-hydroxymethyl-3-{5-[5-(4-isopropyl-piperazin-1-yl)-pyridin-2-ylamino]-1-methyl-6-oxo-1,6-dihydro-pyridazin-3-yl}-phenyl)-2H-phthalazin-1-one HCl]
65 | Cn1nc(-c2cccc(-n3ncc4cc(C(C)(C)C)cc(F)c4c3=O)c2CO)cc(Nc2ccc(OCC(C)(C)O)cn2)c1=O [I-14, 6-tert-butyl-8-fluoro-2-(2-hydroxymethyl-3-{5-[5-(2-hydroxy-2-methyl-propoxy)-pyridin-2-ylamino]-1-methyl-6-oxo-1,6-dihydro-pyridazin-3-yl}-phenyl)-2H-phthalazin-1-one]
52 | Cn1nc(-c2cccc(-n3ncc4cc(C(C)(C)C)cc(F)c4c3=O)c2CO)cc(Nc2ccc(OC(C)(C)CO)cn2)c1=O [I-12, 6-tert-butyl-8-fluoro-2-(3-{5-[5-(2-hydroxy-1,1-dimethyl-ethoxy)-pyridin-2-ylamino]-1-methyl-6-oxo-1,6-dihydro-pyridazin-3-yl}-2-hydroxymethyl-phenyl)-2H-phthalazin-1-one]
41 | COC[C@@H](O)COc1ccc(Nc2cc(-c3cccc(-n4ncc5cc(C(C)(C)C)cc(F)c5c4=O)c3CO)nn(C)c2=O)nc1 [I-17]
9 | Cn1nc(-c2cccc(-n3ncc4cc(C(C)(C)C)cc(F)c4c3=O)c2CO)cc(Nc2ccc(OC(C)(C)CN3CCC3)cn2)c1=O [I-13, 2-(3-{5-[5-(2-azetidin-1-yl-1,1-dimethyl-ethoxy)-pyridin-2-ylamino]-1-methyl-6-oxo-1,6-dihydro-pyridazin-3-yl}-2-hydroxymethyl-phenyl)-6-tert-butyl-8-fluoro-2H-phthalazin-1-one]
7 | CN1CCC[C@@H]1c1ccc(Nc2cc(-c3cccc(-n4ncc5cc(C(C)(C)C)cc(F)c5c4=O)c3CO)nn(C)c2=O)nc1 [I-19, 6-tert-Butyl-8-fluoro-2-(2-hydroxymethyl-3-{1-methyl-5-[5-((R)-1-methyl-pyrrolidin-2-yl)-pyridin-2-ylamino]-6-oxo-1,6-dihydro-pyridazin-3-yl}-phenyl)-2H-phthalazin-1-one]
3 | CN1CCC[C@H]1c1ccc(Nc2cc(-c3cccc(-n4ncc5cc(C(C)(C)C)cc(F)c5c4=O)c3CO)nn(C)c2=O)nc1 [I-18, 6-tert-Butyl-8-fluoro-2-(2-hydroxymethyl-3-{1-methyl-5-[5-((S)-1-methyl-pyrrolidin-2-yl)-pyridin-2-ylamino]-6-oxo-1,6-dihydro-pyridazin-3-yl}-phenyl)-2H-phthalazin-1-one]

same assay, conditions: Homo sapiens, 20 h, read-out: Human Whole Blood

SMILES | IC50 [nM]
Cn1nc(-c2cccc(-n3ncc4cc(C(C)(C)C)cc(F)c4c3=O)c2CO)cc(Nc2ccc(C(=O)N3CCOCC3)cn2)c1=O [I-2, 6-tert-Butyl-8-fluoro-2-(2-hydroxymethyl-3-{1-methyl-5-[5-(morpholine-4-carbonyl)-pyridin-2-ylamino]-6-oxo-1,6-dihydro-pyridazin-3-yl}-phenyl)-2H-phthalazin-1-one] | 14

same assay, conditions: Homo sapiens, 20 h, read-out: Human Whole Blood, CD69-positive, CD20-positive cells after anti-IgM stimulation, human whole blood, 20 hours

SMILES | IC50 [nM]
CN(C)C(=O)c1ccc(Nc2cc(-c3cccc(-n4ncc5cc(C(C)(C)C)cc(F)c5c4=O)c3CO)nn(C)c2=O)nc1 [I-10, 6-{6-[3-(6-tert-Butyl-8-fluoro-1-oxo-1H-phthalazin-2-yl)-2-hydroxymethyl-phenyl]-2-methyl-3-oxo-2,3-dihydro-pyridazin-4-ylamino}-N,N-dimethyl-nicotinamide] | 19
